Patent US20120108557A1, “FLUOROQUINOLONE DERIVATIVES FOR OPHTHALMIC APPLICATIONS” (ALCON RESEARCH, LTD., priority 2008, published 2012)

What was measured:
Assay in all cases: In vitro antimicrobial activity, agar dilution MIC
Format in all cases: cell-based
Acinetobacter baumannii = conditions: test organism 26, Acinetobacter baumannii
Method: (§1) The activity of the compounds of the present invention was evaluated using an in vitro assay. Microorganisms were prepared from growth on agar media, in broth culture, or from thawed cryopreserved cultures. Fungal cultures were filtered to remove mycelial elements.
(§2) Using Mueller Hinton II Broth, 0.9% saline or other appropriate media, a suspension of each culture was prepared and adjusted to a turbidity equivalent to that of a 0.5 McFarland Standard. (Cultures adjusted to the 0.5 McFarland Standard generally contain approximately 1.0×10^8 CFU/mL). The adjusted suspension for each culture was diluted 1:10 in the appropriate media so that the inoculum concentration approximates 1.0×10^7 CFU/mL.
(§3) The antimicrobial agent to be tested was weighed and diluted with a volume of sterile distilled water calculated to yield the necessary starting concentration. Serial 1:2 dilutions of the antimicrobial agent in sterile distilled water were prepared (approximately 10-12 test concentrations comprise a reasonable experimental range). A known amount of each antimicrobial dilution was combined with an aliquot of agar medium calculated to yield the desired final antimicrobial test concentration and dispensed onto plates.
(§4) The amount of antimicrobial agent to be weighed was determined using the following equation: […]
(§5) Antimicrobial stock solutions were prepared at concentrations 5-10 times the highest concentration to be tested (routinely 1024 μg/mL). […] The stock solution was diluted to appropriate concentration using sterile water to form a working solution. The working solution was diluted two-fold, in sterile water, until the desired concentration is obtained.
(§6) Mueller Hinton II agar was prepared as described by the manufacturer. Mueller Hinton II agar may be supplemented with 5% defibrinated sheep blood for testing streptococci. Agar was added to the serially diluted antimicrobial solution in each container. The solutions were mixed thoroughly and poured into petri dishes (about 25 mL/plate). The pH of the agar at 25° C. should be between 7.2 and 7.4.
(§7) At least one inocula control plate was inoculated (agar medium without antimicrobial agent) from each seed plate before inoculating test plates. Test plates were inoculated starting at the lowest concentration and proceeding to the highest concentration. After all test plates were inoculated, an additional control plate (agar medium without antimicrobial agent) was inoculated. The plates were incubated in a non-CO2 incubator (or CO2 incubator depending on growth requirements); 18-24 hours at 32-35° C. was sufficient for most organisms.
(§8) All inoculation points on the agar surface were examined for the presence of growth as compared to the inoculum control plates. The results were summarized and use to determine Minimal Inhibitory Concentrations (MICs): The MIC is the lowest concentration of the antimicrobial agent which prevents visible growth of the organism (negative score).

Acinetobacter junii = system: Acinetobacter junii
Method: as §1, §2, §3, §4, §5, §6, §7, §8

[1] = system: Corynebacterium amycolatum
Method: as §1, §2, §3, §4, §5, §6, §7, §8

Enterobacter hormaechei = system: Enterobacter hormaechei
Method: as §1, §2, §3, §4, §5, §6, §7, §8

Enterococcus faecalis = system: Enterococcus faecalis
Method: as §1, §2, §3, §4, §5, §6, §7, §8

Escherichia coli = system: Escherichia coli
Method: as §1, §2, §3, §4, §5, §6, §7, §8

MRSA = system: MRSA
Method: as §1, §2, §3, §4, §5, §6, §7, §8

MRSE = system: MRSE
Method: as §1, §2, §3, §4, §5, §6, §7, §8

MSSA = conditions: test organism 6, MSSA
Method: as §1, §2, §3, §4, §5, §6, §7, §8

Morganella morganii = system: Morganella morganii
Method: as §1, §2, §3, §4, §5, §6, §7, §8

Pseudomonas aeruginosa = system: Pseudomonas aeruginosa
Method: as §1, §2, §3, §4, §5, §6, §7, §8

Serratia marcescens = system: Serratia marcescens
Method: as §1, §2, §3, §4, §5, §6, §7, §8

Staphylococcus aureus = system: Staphylococcus aureus
Method: as §1, §2, §3, §4, §5, §6, §7, §8

[2] = system: Staphylococcus epidermidis
Method: as §1, §2, §3, §4, §5, §6, §7, §8

[3] = system: Staphylococcus haemolyticus
Method: as §1, §2, §3, §4, §5, §6, §7, §8

[4] = system: Stenotrophomonas maltophilia
Method: as §1, §2, §3, §4, §5, §6, §7, §8

Streptococcus mitis = system: Streptococcus mitis
Method: as §1, §2, §3, §4, §5, §6, §7, §8

Streptococcus pneumoniae = system: Streptococcus pneumoniae
Method: as §1, §2, §3, §4, §5, §6, §7, §8

Measured: Minimal Inhibitory Concentration (MIC)

CN1CCCC2CN(c3cc4c(cc3F)c(=O)c(C(=O)O)cn4C3CC3)CC21 (stereo not drawn) [Compound 2]
0.25: Acinetobacter junii; test organism 28, Acinetobacter junii | Enterobacter hormaechei; test organism 30, Enterobacter hormaechei | Escherichia coli; test organism 32, Escherichia coli
4: Serratia marcescens; test organism 39, Serratia marcescens | Serratia marcescens; test organism 40, Serratia marcescens
0.5: Streptococcus mitis; test organism 22, Streptococcus mitis | Streptococcus pneumoniae; test organism 19, Streptococcus pneumoniae
>4: Acinetobacter junii; test organism 29, Acinetobacter junii | [1]; test organism 25, Corynebacterium amycolatum | Enterobacter hormaechei; test organism 31, Enterobacter hormaechei | Enterococcus faecalis; test organism 17, Enterococcus faecalis | Escherichia coli; test organism 34, Escherichia coli | MRSA; test organism 4, MRSA | MRSE; test organism 11, MRSE | MSSA | Pseudomonas aeruginosa; test organism 37, Pseudomonas aeruginosa | Pseudomonas aeruginosa; test organism 38, Pseudomonas aeruginosa | [3]; test organism 13, Staphylococcus haemolyticus | [3]; test organism 14, Staphylococcus haemolyticus | [4]; test organism 41, Stenotrophomonas maltophilia | Streptococcus mitis; test organism 23, Streptococcus mitis
≦0.25: Acinetobacter baumannii | Acinetobacter junii; test organism 27, Acinetobacter junii | Enterococcus faecalis; test organism 16, Enterococcus faecalis | Escherichia coli; test organism 33, Escherichia coli | Staphylococcus aureus; test organism 2, Staphylococcus aureus | Streptococcus mitis; test organism 21, Streptococcus mitis | Streptococcus pneumoniae; test organism 20, Streptococcus pneumoniae
≦0.03: [1]; test organism 24, Corynebacterium amycolatum
1: Enterococcus faecalis; test organism 15, Enterococcus faecalis | Morganella morganii; test organism 35, Morganella morganii | [3]; test organism 12, Staphylococcus haemolyticus
0.125: Staphylococcus aureus; test organism 1, Staphylococcus aureus
2: Morganella morganii; test organism 36, Morganella morganii | [2]; test organism 7, Staphylococcus epidermidis | [4]; test organism 42, Stenotrophomonas maltophilia
>2: Enterococcus faecalis; test organism 18, Enterococcus faecalis | MRSA; test organism 3, MRSA | MRSA; test organism 5, MRSA | MRSE; test organism 9, MRSE | MRSE; test organism 10, MRSE | [2]; test organism 8, Staphylococcus epidermidis
